Measurements as given in patent publication US20030181373A1, “Vascular relaxation agents” (priority 2000, published 2003).

What was measured:
[1] = test system: extirpated mouse lymph duct (efferent lymph duct of iliac lymph node); test: Test for inhibition of spontaneous contraction of lymph duct (perfused extirpated mouse lymph duct, video microscope); design: species or system DDY mice
Experimental: The evaluation method of relaxation or contraction response is conducted based on a value (relative spontaneous contraction suppression) obtained by dividing the number of spontaneous contractions per minute observed after drug administration until returning to even spontaneous contractions by the average number of spontaneous contractions per minute before drug administration. For example, supposing that it takes 3 minutes to return to even spontaneous contractions after drug administration and that the contractions occur 9 times during that period, the value after drug administration is 3 times/minute. Therefore, if the frequency before drug administration is 15 times/minute, the suppression effect is represented as 20%, which is calculated by dividing 3 by 15 and standardizing the quotient as a percent.
Pentbarbital sodium (50 mg/kg) was intraperitoneally administered to DDY mice (male, 5 to 6 weeks old) so as to be anesthetized and sacrificed, and an efferent lymph duct of an iliac lymph node (with a maximum inner diameter of 300 μm) was extirpated. The extirpated lymph duct was preserved in a chilled Krebs solution (120 mM NaCl, 5.9 mM KCl, 2.5 mM CaCl2, 1.2 mM MgSO4, 1.2 mM NaH2PO4, 5.5 mM glucose, 25.0 mM NaHCO3) at 4° C.
The inner diameter of the perfused extirpated mouse lymph duct specimen, as obtained above, was measured using a video microscope system (FIG. 1). An internal pressure of 3 to 4 cm H2O was supplied to the specimen to induce spontaneous contraction.
Effects of PTHrP(1-34) on spontaneous contraction of the lymph duct were examined and compared with a control, in the presence of NO synthesis inhibitor (L-NAME, 3×10^−5 M), L-arginine (10^−3 M) as a substrate of […], glibenclamide 10^−6 M as an ATP-sensitive K^+ channel inhibitor, and PTHrP(7-34) as a PTH receptor antagonist.

[2] = test system: extirpated human medullary arteriole; test: Relaxation effects on an extirpated human medullary arteriole (perfused specimen); details: control 127 μm
Experimental: Resistance vessel extirpated from femoral cancellous bone and the inside of femoral bone marrow during an artificial joint replacement surgery of a human (malum coxae) was used as a sample of human medullary arteriole. The extirpated femoral concellous bone and femoral bone marrow were preserved in a chilled Krebs solution (at 4° C. or lower), and thereafter used in the following in vitro experiment.
A perfused specimen from this sample was prepared in the same manner as the perfused specimen of the extirpated mouse miniature lymph duct in Example 1.
An image of the diameter of the specimen was captured through an object lens, a taking lens, and a CCD camera in the same manner as Example 2.
With respect to the perfused specimen as prepared above, relaxation effect of PTHrP(1-34)(10^−8M) in the presence of vasoconstricting norepinephrine (NE, 10^−6 M) was examined.

[3] = test system: extirpated rat medullary arteriole; test: Inner diameter changes of perfused medullary arteriole specimen of rat thigh bone; design: species or system Wistar rats
Experimental: Wistar rats (male, 5 to 6 weeks old) were anesthetized with pentbarbital ([…] of intraperitoneal administration) and sacrificed. All the skin, muscle, and ligament attached to the thigh bones were removed so as to expose and extirpate the thigh bones. The extirpated thigh bones were preserved in Krebs solution (at approximately 4° C.) for approximately 30 minutes. Strength was applied along the long axis direction of the thigh bone using mosquito forceps so as to crack the thigh bone along the long axis. Then, the cracked thigh bone was place into a petri dish (containing Krebs solution at approximately 4° C.) which was coated with SILIGUARD. Under a stereoscopic microscope, the thigh bone was removed using microsurgical forceps (commercially available forceps that was further sharpened by a grinder) to expose the bone marrow.
Krebs solution (at approximately 4° C.) was filled into a 1 ml syringe (having a 27G needle attached thereto) and the inside of the bone marrow was washed with the Krebs solution so as to remove myeloid cells adhering to blood vessels.
As a result, a blood vessel network was observed (FIG. 8), and arterioles indicated by black wedge-shaped arrowheads were extirpated under a stereoscopic microscope using micro cusps and microsurgical forceps.
The extirpated medullary arteriole was fixed in an apparatus for preparing a perfused specimen (FIG. 1, vessel chamber 9), and a hydrostatic pressure was supplied thereto so as to wash and remove blood from the arteriole lumen. The inner pressure of the specimen was kept at 40 mmHg during the experiment and the exposed side of the specimen was continuously perfused (12 ml/min) with Krebs solution which was kept at 37° C. and pH of 7.4.
An image of the diameter of the specimen was captured through a object lens, a taking lens, and a CCD camera.

COC(=O)[C@@H](N)CCCNC(=N)N[N+](=O)[O-] [L-NAME, N^G-nitro L-arginine methyl ester]
effect on inhibition of spontaneous lymph duct contraction by PTHrP(1-34), typical response ([1]; L-NAME 3×10^−5 M, PTHrP(1-34) 3×10^−9 M, FIG. 3B): cancelled out | effect on lymph duct relaxation by PTHrP(1-34), four measurements ([1]; in the presence of L-NAME (3×10^−5 M), FIG. 4): significantly cancelled out

N=C(N)NCCC[C@H](N)C(=O)O [L-arginine]
effect of simultaneous treatment with L-NAME on the cancellation effect, typical response ([1]; L-arginine 10^−3 M with L-NAME 3×10^−5 M, PTHrP(1-34) 3×10^−9 M, FIG. 3C): suppressed the cancellation effect of L-NAME | effect of simultaneous treatment with L-NAME on the cancellation effect, four measurements ([1]; L-arginine (10^−3 M) with L-NAME (3×10^−5 M), FIG. 4): significantly suppressed the cancellation effect of L-NAME

NC[C@H](O)c1ccc(O)c(O)c1 [NE, norepinephrine]
inner diameter of perfused specimen in the presence of NE ([2]; NE 10^−6 M, internal pressure 55 mmHg, FIG. 11(b)): 33 μm

COc1ccc(Cl)cc1C(=O)NCCc1ccc(S(=O)(=O)NC(=O)NC2CCCCC2)cc1 [glibenclamide]
effect on lymph duct relaxation caused by PTHrP(1-34), typical response ([1]; glibenclamide 10^−6 M, PTHrP(1-34) 3×10^−9 M, FIG. 5B): cancelled out | effect on lymph duct relaxation caused by PTHrP(1-34), four measurements ([1]; glibenclamide (10^−6 M), FIG. 6): significantly cancelled out

PTHrP(1-34): peptide comprising a sequence of 1 to 34 amino acids relative to the amino acid sequences of the PTHrP
dose dependence of dilation effect ([3]; 10^−10 to 10^−8 M, FIG. 10): dose dependent | inner diameter at maximum dilation (relaxation) after administration ([3]; PTHrP(1-34) 10^−8 M, dilated from 66 μm, passive diameter 120 μm, internal pressure 40 mmHg, FIG. 9): 114 μm | dose at which dilation response was induced ([3]; dose range 10^−10 to 10^−8 M, FIG. 10): 10^−9 M | inner diameter of perfused specimen after addition of PTHrP(1-34) in the presence of NE ([2]; PTHrP(1-34) 10^−8 M with NE 10^−6 M, NE alone 33 μm, FIG. 11(c)): 121 μm | frequency of spontaneous contraction after drug administration ([1]; 3×10^−10 of PTHrP(1-34), 15 times/minute before drug administration, FIG. 2A): 13 times/minute | effect on spontaneous contractions of the lymph duct at increased concentration ([1]; PTHrP(1-34) 10^−9 M, 3×10^−9 M, in addition to dilation responses, FIG. 2A): stopped remarkably | effect of increasing PTHrP(1-34) on lymph duct (relative spontaneous contraction frequency ratio) ([1]; control without L-NAME and L-arginine, four measurements, FIG. 4): relaxed the lymph duct | tachyphylaxis on repeated dose response ([1]; same specimen washed for 1 hour, dose response re-examined, FIG. 2B): induced remarkable tachyphylaxis

PTHrP(7-34): peptide having a sequence comprising from 7 to 34 amino acids of PTHrP; PTH/PTHrP receptor antagonist
effect on lymph duct relaxation by PTHrP(1-34), four individual examples ([1]; PTHrP(7-34) 10^−7 M, PTHrP(1-34) 10^−10 to 3×10^−9 M, FIG. 7): significantly cancelled out
